# Results from patent publication US10745420B2, “Tetrahydropyrido[4,3-d]pyrimidine inhibitors of ATR kinase” (Board of Regents, The University of Texas System, priority 2017, dated 2020).
# Where two headings read alike, the source gives them in different places.
# Columns and labels:
# [1] = system: ATR-driven phosphorylation of Chk1 kinase at Serine 345; test: pCHK1 cellular assay (CHK1 p-Ser345 AlphaScreen SureFire) in HT-29 cells; format: cell-based; conditions: 4-nitroquinoline N-oxide 12 uM, read-out: pCHK1 Cell IC50
# Description: Inhibitors of ATR kinase are effective at inhibiting the ATR-driven phosphorylation of the downstream target Chk1 kinase at Serine 345, following the addition of 4-nitroquinoline N-oxide, a chemical used to induce DNA damage. Cellular IC50 for the inhibitors of ATR described herein were measured in HT-29 colorectal adenocarcinoma cells. HT-29 cells were routinely maintained in McCoy's 5A media (ATCC Catalog #30-2007) supplemented with 10% fetal bovine serum (Sigma Catalog # F2442) and 1× Penicillin-Streptomycin (Gibco Catalog #15140-122) using a humidified incubator (37° C., 5% CO2, and ambient O2).
# In preparation for the CHK1 (p-Ser345) ALPHASCREEN® SUREFIRE® assay, cells were harvested and resuspended in McCoy's 5A media supplemented with 10% fetal bovine serum and 1× Penicillin-Streptomycin. Cells were seeded onto a 384-well black CELLSTAR® Tissue Culture Plate (VWR Catalog #89085-314) at a density of 13,000 cells/well in a volume of 40 uL. The microplate was incubated overnight (approximately 20 hours) at 37° C. with 5% CO2 and ambient O2. Stock solutions of the test compounds were prepared in 100% DMSO (Sigma, Catalog # D2650) and serially diluted 1:3 using 100% DMSO. Compounds were additionally diluted 1:33 in culture medium, and 10 ul/well were transferred to the tissue culture plate. Following the compound addition the microplate was incubated at 37° C. for 90 minutes. 10 uL of 4-nitroquinoline N-oxide (Sigma Aldrich Catalog # N8141-1G) diluted in media (final concentration 12 uM) were added to the tissue culture plate followed by a 120 minute incubation at 37° C. The cells were then washed with PBS and lysed using 10 uL/well SUREFIRE® Kit lysis buffer diluted to 1× in water (PerkinElmer Catalog # TGRCHK1S50K), with mixing on an orbital shaker at 500 rpm for 20 min at RT. Lysates were frozen at −20° C. overnight.
# 4 uL/well of lysate was then transferred from the tissue culture plate to a 384-well, white, low volume, PROXIPLATE™ (PerkinElmer Catalog #600828). 5 uL/well of the acceptor bead solution, prepared by diluting SUREFIRE® Kit activation buffer (PerkinElmer Catalog # TGRCHK1S50K) and ALPHASCREEN® Protein A acceptor beads (PerkinElmer Catalog #6760617R) in SUREFIRE® Kit reaction buffer (PerkinElmer Catalog # TGRCHK1S50K), were added to the lysates under subdued light and incubated at room temperature for 120 min. 2 uL/well of the donor bead solution, prepared by diluting ALPHASCREEN® Streptavidin donor beads (PerkinElmer Catalog #6760617R) in SUREFIRE® Kit dilution buffer (PerkinElmer Catalog # TGRCHK1S50K), were added under subdued light and incubated at room temperature for an addition 120 minutes. The pCHK1 ALPHASCREEN® signal was measured using an ENVISION® plate reader (PerkinElmer). IC50 values were calculated using a four-parameter logistic curve fit using Genedata Screener software. Percent of control for each compound concentration was calculated by the following formula: 100*(Compound-Min)/(Max-Min) where “Max” is the high control, DMSO, and “Min” is the low control, 5 uM ATR inhibitor.
# [2] = target: ATR/ATRIP complex (Homo sapiens (Human), UniProt Q13535); test: ATR/ATRIP enzymatic assay (Caliper-based); format: biochemical; conditions: FAM-labeled RAD17 peptide, ATP; read-out: ATR/ATRIP Enzyme IC50
# Sequence of ATR/ATRIP complex (Q13535 whole entry): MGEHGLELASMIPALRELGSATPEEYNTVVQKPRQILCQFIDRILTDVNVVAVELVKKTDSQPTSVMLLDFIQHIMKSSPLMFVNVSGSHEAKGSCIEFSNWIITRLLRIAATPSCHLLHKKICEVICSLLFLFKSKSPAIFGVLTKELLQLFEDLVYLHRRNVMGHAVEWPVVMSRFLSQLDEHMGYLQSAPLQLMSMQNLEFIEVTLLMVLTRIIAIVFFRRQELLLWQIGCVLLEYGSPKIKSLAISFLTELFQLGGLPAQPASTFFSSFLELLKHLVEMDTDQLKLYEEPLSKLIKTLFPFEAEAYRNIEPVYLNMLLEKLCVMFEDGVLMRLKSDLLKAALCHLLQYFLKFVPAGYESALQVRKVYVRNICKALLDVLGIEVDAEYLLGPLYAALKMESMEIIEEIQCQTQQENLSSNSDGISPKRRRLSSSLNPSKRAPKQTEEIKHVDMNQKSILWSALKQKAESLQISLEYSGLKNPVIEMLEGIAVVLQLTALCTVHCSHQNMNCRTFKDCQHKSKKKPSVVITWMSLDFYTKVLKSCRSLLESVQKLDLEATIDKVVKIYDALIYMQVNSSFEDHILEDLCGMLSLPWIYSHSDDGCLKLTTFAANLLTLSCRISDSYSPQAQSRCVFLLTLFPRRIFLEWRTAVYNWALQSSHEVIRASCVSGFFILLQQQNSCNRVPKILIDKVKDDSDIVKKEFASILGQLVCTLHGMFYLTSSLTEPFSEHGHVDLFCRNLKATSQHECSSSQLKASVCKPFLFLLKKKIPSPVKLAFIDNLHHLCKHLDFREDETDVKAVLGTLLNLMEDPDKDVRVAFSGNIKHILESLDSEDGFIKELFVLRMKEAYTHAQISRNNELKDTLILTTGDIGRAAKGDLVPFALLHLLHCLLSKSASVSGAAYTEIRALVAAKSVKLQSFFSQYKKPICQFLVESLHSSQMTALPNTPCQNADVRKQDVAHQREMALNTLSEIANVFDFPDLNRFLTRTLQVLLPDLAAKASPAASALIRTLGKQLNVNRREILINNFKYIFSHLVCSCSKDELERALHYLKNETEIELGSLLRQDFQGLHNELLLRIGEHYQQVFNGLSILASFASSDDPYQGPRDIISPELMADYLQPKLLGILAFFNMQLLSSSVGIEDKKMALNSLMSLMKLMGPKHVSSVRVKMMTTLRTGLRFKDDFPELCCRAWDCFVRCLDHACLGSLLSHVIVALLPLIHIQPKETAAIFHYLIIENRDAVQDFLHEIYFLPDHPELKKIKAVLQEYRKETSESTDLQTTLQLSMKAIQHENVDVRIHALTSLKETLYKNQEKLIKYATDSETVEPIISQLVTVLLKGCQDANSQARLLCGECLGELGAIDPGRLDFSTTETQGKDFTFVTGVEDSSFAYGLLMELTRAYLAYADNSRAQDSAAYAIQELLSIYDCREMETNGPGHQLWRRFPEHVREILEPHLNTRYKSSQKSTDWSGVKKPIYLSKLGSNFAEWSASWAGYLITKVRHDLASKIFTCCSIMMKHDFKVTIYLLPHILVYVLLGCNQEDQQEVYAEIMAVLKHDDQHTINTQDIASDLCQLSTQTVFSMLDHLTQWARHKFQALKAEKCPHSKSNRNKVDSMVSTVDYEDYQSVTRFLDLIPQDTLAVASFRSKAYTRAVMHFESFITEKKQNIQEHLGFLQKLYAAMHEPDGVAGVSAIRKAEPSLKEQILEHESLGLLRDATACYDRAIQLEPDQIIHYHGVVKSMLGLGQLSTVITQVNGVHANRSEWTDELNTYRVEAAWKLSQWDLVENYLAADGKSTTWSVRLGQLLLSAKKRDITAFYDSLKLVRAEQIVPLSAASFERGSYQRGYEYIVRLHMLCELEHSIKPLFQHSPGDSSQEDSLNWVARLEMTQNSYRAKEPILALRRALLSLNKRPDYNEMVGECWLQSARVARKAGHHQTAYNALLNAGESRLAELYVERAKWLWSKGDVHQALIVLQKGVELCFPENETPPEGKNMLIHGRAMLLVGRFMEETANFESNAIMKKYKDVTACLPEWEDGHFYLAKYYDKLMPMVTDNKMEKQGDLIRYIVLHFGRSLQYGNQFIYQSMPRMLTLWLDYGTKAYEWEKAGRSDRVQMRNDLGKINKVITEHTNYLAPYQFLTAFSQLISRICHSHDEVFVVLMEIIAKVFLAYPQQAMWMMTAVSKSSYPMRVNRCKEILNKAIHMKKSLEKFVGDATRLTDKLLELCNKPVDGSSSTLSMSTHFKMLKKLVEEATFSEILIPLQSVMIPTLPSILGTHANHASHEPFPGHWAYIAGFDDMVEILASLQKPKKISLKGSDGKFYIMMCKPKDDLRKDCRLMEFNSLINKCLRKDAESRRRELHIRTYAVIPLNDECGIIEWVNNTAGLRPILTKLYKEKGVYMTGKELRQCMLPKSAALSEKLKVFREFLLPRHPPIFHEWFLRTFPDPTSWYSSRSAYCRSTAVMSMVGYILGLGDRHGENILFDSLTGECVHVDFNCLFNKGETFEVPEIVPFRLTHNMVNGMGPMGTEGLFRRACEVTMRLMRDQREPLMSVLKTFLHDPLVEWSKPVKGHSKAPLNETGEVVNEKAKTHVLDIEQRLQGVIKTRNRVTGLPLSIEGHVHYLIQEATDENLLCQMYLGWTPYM
# Sequence of ATR/ATRIP complex (Q8WXE1 whole entry partner): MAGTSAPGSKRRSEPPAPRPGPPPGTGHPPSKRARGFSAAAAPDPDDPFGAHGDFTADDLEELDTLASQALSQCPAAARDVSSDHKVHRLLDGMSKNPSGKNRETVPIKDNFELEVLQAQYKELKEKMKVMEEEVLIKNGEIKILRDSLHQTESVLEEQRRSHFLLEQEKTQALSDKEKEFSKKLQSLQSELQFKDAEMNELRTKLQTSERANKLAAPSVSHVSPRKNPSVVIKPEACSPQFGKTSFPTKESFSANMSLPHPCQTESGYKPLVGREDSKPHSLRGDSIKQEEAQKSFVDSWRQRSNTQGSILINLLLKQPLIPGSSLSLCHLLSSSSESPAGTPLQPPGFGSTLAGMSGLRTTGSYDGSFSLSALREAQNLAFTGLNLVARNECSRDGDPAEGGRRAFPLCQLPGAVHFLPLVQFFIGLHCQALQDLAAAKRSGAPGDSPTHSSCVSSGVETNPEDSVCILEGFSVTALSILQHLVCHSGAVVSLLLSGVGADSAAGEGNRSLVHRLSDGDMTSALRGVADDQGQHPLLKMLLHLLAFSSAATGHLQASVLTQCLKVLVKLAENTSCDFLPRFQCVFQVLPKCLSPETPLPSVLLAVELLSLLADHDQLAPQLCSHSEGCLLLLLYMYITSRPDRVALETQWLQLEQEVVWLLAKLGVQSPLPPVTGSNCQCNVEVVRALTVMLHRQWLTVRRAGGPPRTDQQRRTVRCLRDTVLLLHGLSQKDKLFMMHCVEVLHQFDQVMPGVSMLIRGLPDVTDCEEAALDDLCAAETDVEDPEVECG
# Description: Human full-length FLAG-TEV-ATR and His6-ATRIP were co-expressed in HEK293 cells. The cell pellet (20 g) was harvested and lysed in 100 mL of lysis buffer (20 mM Tris-HCl pH 7.5 at room temperature, 137 mM NaCl, 10% glycerol, 1 mM DTT, 1% (v/v) Tween-20, 0.1% (v/v) NP-40, complete protease inhibitor cocktail tablets, phosphatase inhibitor cocktail tablets, 2 mM MgCl2, 0.2 mM EDTA, and 1 mM ATP). After sonication and centrifugation, the supernatant was incubated at 4° C. for 3 hours with 1 mL of anti-FLAG resin (Sigma catalog # A2220) that had been pre-equilibrated in buffer A (20 mM Tris-HCl pH 7.5 at room temperature, 137 mM NaCl, 10% glycerol, 1 mM DTT, 2 mM MgCl2, and 0.2 mM EDTA). The sample was loaded into a column, and then washed with buffer A three times. Protein was subsequently eluted with 2 ml of buffer B (buffer A+200 μg/ml 3×FLAG peptide).
# The ability of new chemical matter to inhibit the ATR catalytic activity in this ATR/ATRIP complex was assessed a Caliper-based assay. A 2× enzyme solution (i.e., 4 nM enzyme) was prepared using 1× Kinase Reaction Buffer (25 mM HEPES pH 8, 0.0055% Brij-35, 10 mM MnCl2, and 1 mM DTT). A 2× peptide solution was then prepared consisting of 10 uM FAM-labeled RAD17 peptide (GL Biochem, catalog #524315) in 1× Kinase Reaction Buffer supplemented with 2 μM ATP. 10 μL of the 2× enzyme solution was transferred to an assay plate containing 60 nL of test compound (from a 3× serial dilution) in 100% DMSO. Following a 30 minute incubation at 28° C., 10 μL of the 2× peptide solution was then transferred to the same assay plate. The reaction was allowed to incubate at 28° C. for 6 hours. After adding 30 μL of stop buffer (100 mM HEPES pH 7.5, 0.015% Brij-35, 0.2% Coating-3 Reagent (PerkinElmer, catalog # PN760050), and 50 mM EDTA), data were collected on a Caliper instrument. […] IC50 values were calculated using the following equation in XLFit: Y=Bottom+(Top-Bottom)/1+(IC50/X)^HillSlope).
# [3] = Homo sapiens, HT-29, HT-29 colorectal adenocarcinoma cells
structure (smiles),measurement,setting,value
"C[C@@H]1Cc2ncnc([C@H]3CCN(S(C)(=O)=O)C3)c2CN1c1ccnc2[nH]ccc12 [Example 57b, (R)-7-methyl-4-((S)-1-(methylsulfonyl)pyrrolidin-3-yl)-6-(1H-pyrrolo[2,3-b]pyridin-4-yl)-5,6,7,8-tetrahydropyrido[4,3-d]pyrimidine]",IC50,[1]; [3],394 nM
"C[C@@H]1Cc2ncnc(N3C[C@H]4CC[C@@H](C3)[C@H]4NS(C)(=O)=O)c2CN1c1ccnc2[nH]ccc12 [Example 74, N-((1R,5S,8R)-3-((R)-7-methyl-6-(1H-pyrrolo[2,3-b]pyridin-4-yl)-5,6,7,8-tetrahydropyrido[4,3-d]pyrimidin-4-yl)-3-azabicyclo[3.2.1]octan-8-yl)methanesulfonamide]",IC50,[1]; [3],31 nM
same,IC50,[2],279 nM
"C[C@@H]1Cc2ncnc(C3CCCN(S(C)(=O)=O)C3)c2CN1c1cc(Cl)nc2[nH]ccc12 (single isomer, unassigned) [Example 51a]",IC50,[2],561 nM
"C[C@@H]1Cc2ncnc(N3CCC(S(C)(=O)=O)CC3)c2CN1c1cc(Cl)nc2[nH]ccc12 [Example 9, (R)-6-(6-Chloro-1H-pyrrolo[2,3-b]pyridin-4-yl)-7-methyl-4-(4-(methylsulfonyl)-piperidin-1-yl)-5,6,7,8-tetrahydropyrido[4,3-d]pyrimidine bis(trifluoroacetate)]",IC50,[1]; HT-29 colorectal adenocarcinoma cells,25 nM
"C[C@@H]1Cc2ncnc(C3CCCN(S(C)(=O)=O)C3)c2CN1c1cc(Cl)nc2[nH]ccc12 (single isomer, unassigned) [Example 51b]",IC50,[2],2200 nM
"C[C@@H]1Cc2ncnc([C@H]3CCN(S(C)(=O)=O)C(C)(C)C3)c2CN1c1ccnc2[nH]ccc12 (single isomer, unassigned) [Example 48b]",IC50,[1]; [3],79 nM
"C[C@@H]1Cc2ncnc(N3CCC(S(C)(=O)=O)CC3)c2CN1c1ccnc2[nH]ccc12 [Example 88, (R)-7-methyl-4-(4-(methylsulfonyl)piperidin-1-yl)-6-(1H-pyrrolo[2,3-b]pyridin-4-yl)-5,6,7,8-tetrahydropyrido[4,3-d]pyrimidine]",IC50,[1]; [3],85 nM
